# Activity calls are given as the source filed them.
# Key:
# [1] = target: T1, DNA repair protein RAD52 homolog (Homo sapiens, UniProt P43351); type: functional, biochemical
# T1 sequence (P43351 whole entry): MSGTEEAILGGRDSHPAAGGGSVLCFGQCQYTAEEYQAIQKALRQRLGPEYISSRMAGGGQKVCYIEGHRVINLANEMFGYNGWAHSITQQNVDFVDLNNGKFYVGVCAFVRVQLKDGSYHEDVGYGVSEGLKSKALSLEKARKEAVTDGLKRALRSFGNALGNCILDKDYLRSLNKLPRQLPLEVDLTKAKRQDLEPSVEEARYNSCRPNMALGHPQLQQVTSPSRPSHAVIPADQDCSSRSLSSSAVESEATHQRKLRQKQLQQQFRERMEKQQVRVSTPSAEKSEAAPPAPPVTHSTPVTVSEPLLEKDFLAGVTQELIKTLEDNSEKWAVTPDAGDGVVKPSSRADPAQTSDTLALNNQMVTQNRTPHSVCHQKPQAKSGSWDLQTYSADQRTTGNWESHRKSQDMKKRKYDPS
# [2] = target: T2, Rac GTPase-activating protein 1 (Homo sapiens, UniProt Q9H0H5); assay: MgcRacGAP GTPase-activating activity inhibitors, confirmation, biochemical, ADP Hunter fluorescence, primary and confirmatory (AID 624330); type: functional
# T2 sequence (Q9H0H5 whole entry): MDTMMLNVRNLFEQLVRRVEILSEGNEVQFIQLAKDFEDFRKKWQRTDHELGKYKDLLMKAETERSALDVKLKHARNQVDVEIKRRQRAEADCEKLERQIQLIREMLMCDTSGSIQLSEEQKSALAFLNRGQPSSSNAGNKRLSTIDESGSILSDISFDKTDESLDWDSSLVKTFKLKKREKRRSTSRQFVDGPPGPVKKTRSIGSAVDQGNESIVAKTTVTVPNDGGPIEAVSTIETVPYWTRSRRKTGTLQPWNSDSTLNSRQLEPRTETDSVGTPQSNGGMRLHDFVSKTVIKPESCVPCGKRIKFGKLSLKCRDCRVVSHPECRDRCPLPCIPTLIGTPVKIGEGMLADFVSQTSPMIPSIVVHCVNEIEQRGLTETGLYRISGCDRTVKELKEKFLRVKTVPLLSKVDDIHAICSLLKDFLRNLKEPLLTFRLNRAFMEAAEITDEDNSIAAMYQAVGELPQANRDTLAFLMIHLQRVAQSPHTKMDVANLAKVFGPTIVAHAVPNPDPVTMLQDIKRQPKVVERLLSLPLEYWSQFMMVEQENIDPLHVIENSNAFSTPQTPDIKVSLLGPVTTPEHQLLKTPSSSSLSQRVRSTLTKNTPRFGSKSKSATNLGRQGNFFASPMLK
# [3] = T. cruzi growth inhibition in host cells, dose response, cell-based, plate reader, dry powder, set 2 (AID 652275); type: functional
# [4] = HEK293T cytotoxicity, dose response, cytotoxicity control for miR-122 modulator project, cell-based, inhibitor set, cherry-pick, set 2 (AID 720697); type: functional
# [5] = HEK293T cytotoxicity, dose response, cytotoxicity control for miR-122 modulator project, cell-based, activator set, cherry-pick (AID 720690); type: functional;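 further: HEK293T human cells scored for general mammalian cytotoxicity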
# HeLa = assay: HeLa cell cytotoxicity, dose response, cytotoxicity control, ATP luminescence, cherry-pick samples (AID 687004); type: functional, cell-based; conditions: Homo sapiens
# Paired box protein Pax-8 = Paired box protein Pax-8 (Homo sapiens, UniProt Q06710); assay: inhibitors of PAX8-driven TPO luciferase reporter, dose response, RMG-I cells, cherry-pick (AID 687027); type: functional, cell-based;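 further: luciferase reporter driven by Pax8 target thyroperoxidase promoter measured by SteadyGlo luminescence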
# Paired box protein Pax-8, sequence (Q06710 whole entry): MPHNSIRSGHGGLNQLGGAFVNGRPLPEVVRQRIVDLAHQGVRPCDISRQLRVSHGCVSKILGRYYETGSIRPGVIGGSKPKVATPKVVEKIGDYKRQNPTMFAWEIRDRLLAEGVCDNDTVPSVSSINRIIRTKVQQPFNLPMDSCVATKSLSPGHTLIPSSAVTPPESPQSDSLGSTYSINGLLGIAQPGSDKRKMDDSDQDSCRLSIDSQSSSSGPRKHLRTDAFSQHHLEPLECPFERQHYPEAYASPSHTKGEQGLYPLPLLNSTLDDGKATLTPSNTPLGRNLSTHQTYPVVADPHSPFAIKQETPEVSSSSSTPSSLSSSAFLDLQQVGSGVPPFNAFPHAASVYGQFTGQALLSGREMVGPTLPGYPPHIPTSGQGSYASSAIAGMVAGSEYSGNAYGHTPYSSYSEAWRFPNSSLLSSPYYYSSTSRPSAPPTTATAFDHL
# [6] = NIH:OVCAR-3 ovarian cancer cell cytotoxicity, dose response, PAX8 inhibitor project, plate reader, dry powder samples (AID 743044); type: functional, cell-based
# [7] = IGROV1 ovarian cancer cell cytotoxicity, dose response, PAX8 inhibitor project, plate reader, dry powder samples (AID 743043); type: functional, cell-based; conditions: IGROV-1
# [8] = non-specific cell cytotoxicity, dose response, cytotoxicity control for PAX8 inhibitor project, plate reader, dry powder samples (AID 743021); type: functional, cell-based
# [9] = cytotoxicity in OVCAR8 ovarian cancer cells, dose response, PAX8 project, cell-based, plate reader, dry powder samples (AID 743197); type: functional; conditions: OVCAR-8
# [10] = miR-122 activators in hepatoma reporter cells, dose response, cell-based, Huh7 psiCHECK-miR122, Renilla luciferase, cherry-picked (AID 651956); type: functional;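 further: huh7 hepatoma cells stably carrying a psiCHECK-2 miR-122 sensor plasmid; renilla luciferase signal reporting endogenous miR-122 activity after 48 h compound exposure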
# [11] = target: T3, Oxysterols receptor LXR-beta (Homo sapiens, UniProt P55055); type: functional, cell-based;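 further: agonist activity at LXR measured by a cell-based luminescence readout across a dose range, run as a counterscreen for daf-12 agonists; HEK293 cells with Gal4-LXR fusion and GAL4-driven luciferase reporter; potency for activation of Gal4-LXR reporter so compounds are agonists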
# T3 sequence (P55055 whole entry): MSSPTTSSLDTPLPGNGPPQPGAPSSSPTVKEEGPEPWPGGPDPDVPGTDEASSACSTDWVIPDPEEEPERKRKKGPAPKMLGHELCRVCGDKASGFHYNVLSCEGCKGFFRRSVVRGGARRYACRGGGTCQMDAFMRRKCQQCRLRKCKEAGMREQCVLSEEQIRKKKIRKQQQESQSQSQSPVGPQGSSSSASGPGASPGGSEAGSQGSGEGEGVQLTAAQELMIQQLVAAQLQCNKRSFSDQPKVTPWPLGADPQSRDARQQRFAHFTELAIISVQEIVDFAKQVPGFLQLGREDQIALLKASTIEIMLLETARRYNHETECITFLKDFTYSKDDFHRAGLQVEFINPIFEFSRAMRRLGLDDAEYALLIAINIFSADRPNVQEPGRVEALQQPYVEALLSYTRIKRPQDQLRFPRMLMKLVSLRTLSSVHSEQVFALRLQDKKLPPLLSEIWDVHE
# [12] = inhibitors of HIV Env-driven cell fusion, dose response, cherry-pick (AID 652057); type: functional, cell-based
# [13] = CEM21 lymphoblast cell cytotoxicity, dose response, cytotoxicity control for viral fusion inhibitor project, CellTiter-Glo luminescence, cherry-picked (AID 652042); type: functional, cell-based;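 further: potency for signal decrease meaning cytotoxicity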
# [14] = target: Glucose-6-phosphate 1-dehydrogenase (Homo sapiens, UniProt P11413); assay: human G6PD enzyme inhibitors, dose response, selectivity assay for P. falciparum G6PD inhibitor project, biochemical, fluorescence (AID 504792); type: functional
# Glucose-6-phosphate 1-dehydrogenase, sequence (P11413 whole entry): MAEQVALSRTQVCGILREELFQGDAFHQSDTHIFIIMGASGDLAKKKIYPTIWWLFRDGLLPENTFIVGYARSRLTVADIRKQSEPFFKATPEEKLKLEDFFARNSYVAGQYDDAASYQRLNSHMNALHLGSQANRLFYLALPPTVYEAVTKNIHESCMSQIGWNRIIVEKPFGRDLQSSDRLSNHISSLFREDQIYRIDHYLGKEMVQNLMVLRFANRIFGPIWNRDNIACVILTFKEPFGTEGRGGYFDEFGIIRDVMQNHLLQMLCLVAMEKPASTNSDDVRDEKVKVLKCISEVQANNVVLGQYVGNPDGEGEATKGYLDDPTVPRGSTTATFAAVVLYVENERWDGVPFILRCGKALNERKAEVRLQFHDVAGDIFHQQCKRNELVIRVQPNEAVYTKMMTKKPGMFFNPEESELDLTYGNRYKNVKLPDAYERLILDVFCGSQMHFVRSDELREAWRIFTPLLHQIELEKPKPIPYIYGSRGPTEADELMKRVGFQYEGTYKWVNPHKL
# [15] = microbe, parasite or virus in culture; type: functional; conditions: Mycobacterium tuberculosis
# [16] = A549 cell cytotoxicity, dose response, cytotoxicity control, plate reader, cherry-pick, antagonist series (AID 743412); type: functional, cell-based
# [17] = system: Streptococcus sp. 'group A'; assay: growth inhibition of control SK(-) GAS strain, dose response, counter-screen for streptokinase expression inhibitor project, luminescence, kanamycin, BacTiterGlo, confirmation (AID 1900); type: functional, organism-based
# cells [18] = type: functional, cell-based
# [19] = target: T4, Heat shock factor protein 1 (Mus musculus, UniProt P38532); assay: inhibition of MG132-induced HSE-luciferase signal, confirmation, cell-based, NIH3T3, luminescence, dose retest (AID 2382); type: functional;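 further: NIH3T3 fibroblasts with HSF1-driven luciferase reporter stressed by proteasome inhibitor MG132; luminescence from HSF1-driven luciferase expression after 8 hours of MG132 stress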
# T4 sequence (P38532 whole entry): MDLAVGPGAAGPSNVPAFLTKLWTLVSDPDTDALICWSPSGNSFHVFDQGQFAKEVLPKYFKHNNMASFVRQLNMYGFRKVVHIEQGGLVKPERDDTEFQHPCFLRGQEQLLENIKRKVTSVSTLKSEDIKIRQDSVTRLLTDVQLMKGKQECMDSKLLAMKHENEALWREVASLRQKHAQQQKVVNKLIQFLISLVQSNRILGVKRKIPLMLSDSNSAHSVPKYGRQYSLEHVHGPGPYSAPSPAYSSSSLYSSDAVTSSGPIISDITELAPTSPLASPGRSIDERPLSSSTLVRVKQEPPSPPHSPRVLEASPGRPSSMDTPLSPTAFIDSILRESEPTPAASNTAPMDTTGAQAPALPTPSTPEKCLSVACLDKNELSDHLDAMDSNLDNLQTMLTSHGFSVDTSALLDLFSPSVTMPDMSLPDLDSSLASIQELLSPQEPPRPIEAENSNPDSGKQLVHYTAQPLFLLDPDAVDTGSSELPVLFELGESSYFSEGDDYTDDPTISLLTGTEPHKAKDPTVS
# [20] = inhibitors of intracellular T. cruzi replication, confirmation, NIH3T3 host cells, beta-gal luminescence (AID 2044); type: functional, cell-based;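 further: intracellular parasites grown in NIH/3T3 mouse fibroblasts as host cells; luminescent beta-galactosidase reporter signal from transgenic T. cruzi replicating inside host cells; inhibitors lower the luminescence signal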
# cells [21] = type: functional, cell-based; remark: listed apart in the source
# [22] = cytotoxicity toward NIH3T3 fibroblasts, dose response, counter-screen, cell-based, ATP luminescence, mouse fibroblasts (AID 2010); type: functional;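 further: cells exposed to compound for about 90 hours before reading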
# Streptococcus = assay: Group A Streptococcus viability loss, dose response, counter-screen for streptokinase expression inhibitor project, luminescence, BacTiterGlo (AID 1915); type: functional, organism-based;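 further: potency for reduction of bacterial viability or growth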
# [23] = target: Heat shock protein HSP 90-alpha (Homo sapiens, UniProt P07900); type: functional, organism-based
# [24] = Shn3 3'UTR reporter inhibitors, dose response, cell-based, Clone20 osteoblasts, firefly luciferase, cherry-picked (AID 624132); type: functional;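 further: firefly luciferase luminescence from reporter carrying the Shn3 3'UTR in osteoblasts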
# [25] = HepG2 cell cytotoxicity, dose response, cytotoxicity control for Shn3 inhibitor project, CellTiter-Glo, cherry-picked (AID 624134); type: functional, cell-based
# [26] = control 3'UTR Renilla luciferase suppression, dose response, counter-screen for Shn3 inhibitor project, cell-based, Clone20-Shn3RL, cherry-picked (AID 624133); type: functional
# [27] = ZM109 Env clade C HIV-1 fusion inhibitors, dose response, HeLa effector, CEM target cells, luciferase, cherry-pick (AID 652058); type: functional, cell-based
# [28] = off-target signal loss in HeLa-CEM21 co-culture – HeLa F-luc CTL cells, cherry-picked, counter-screen for HIV-1 Env fusion inhibitor project, dose response (AID 652040); type: functional, cell-based;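 further: potency for signal decrease marking cytotoxic or nonspecific inhibition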
# [29] = inhibitors of clade B AD8 Env fusion, dose response, cell-based, cherry-pick (AID 652062); type: functional;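 further: luciferase signal from cell-cell fusion driven by HIV-1 clade B AD8 Env; potency is for inhibitors of fusion seen as a drop in luminescence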
smiles,measurement,setting,value
Cc1ccc(-c2csc(NC(=O)C[n+]3cc(-c4ccccc4)n4c3CCC4)n2)cc1,AC50,[1],21.1 µM (active)
O=C(CN1CCCCC1)Nc1ccc(N2CCCCCC2)cc1,IC50,[2],126 µM (active)
same,AC50,[1],22.8 µM (active)
CC(C)(C)[S+]([O-])N1Cc2cc(C(=O)NCc3ccc4c(c3)OCO4)nc(-c3cccc(-c4cccc(F)c4)c3)c2[C@H]1CCO (some centres not stated),AC50,[3],0.394 µM (active)
COCC(=O)Nc1ccc2c(c1)C(=O)N(C)[C@@H]1CC[C@H](CC(=O)N3CCc4ccccc4C3)O[C@H]1CO2,AC50,[4],9.29 µM (active)
same,AC50,[5],37 µM (active)
CCNC(=O)Nc1ccc2c(c1)C(=O)N(C)[C@H]1CC[C@H](CC(=O)Nc3ccccc3F)O[C@@H]1CO2,AC50,HeLa,0.264 µM (active)
same,AC50,[4],2.11 µM (active)
C[C@@H]1CCCCO[C@H](CN(C)Cc2ccc(Cl)c(Cl)c2)[C@@H](C)CN([C@@H](C)CO)C(=O)c2cc(NC(=O)c3ccccc3)ccc2O1,AC50,Paired box protein Pax-8,8.87 µM (active)
same,AC50,[6],43.1 µM (active)
same,AC50,[7],47.5 µM (active)
same,AC50,[8],52.7 µM (active)
same,AC50,[9],60 µM (active)
Cc1ccccc1-c1ccc([C@@H]2[C@H](CO)N3CCCCN(C(=O)Nc4cccc(F)c4)C[C@@H]23)cc1,AC50,[10],9.43 µM (active)
same,AC50,Paired box protein Pax-8,19.6 µM (active)
same,AC50,[6],20.4 µM (active)
same,AC50,[7],35.5 µM (active)
same,AC50,[5],13.7 µM (active)
same,AC50,[8],3.19 µM (active)
Cc1nnc(SCC(=O)Nc2nsc(-c3ccc(C(C)(C)C)cc3)n2)s1,EC50,[11],> 67.5 µM (inactive)
N#C[C@@H]1[C@H](c2ccc(-c3ccccc3F)cc2)[C@@H](CO)N1C(=O)c1ccccn1,AC50,[12],62.6 µM (active)
same,AC50,[13],67 µM (active)
CC(C)N1C(=O)c2cccc(NC(=O)c3ccncc3)c2O[C@H](CN(C)Cc2ccc(Cl)cc2)[C@H]1C,AC50,[3],0.00096 µM (active)
COc1cc(-c2cc(OC)c(O)c(OC)c2)cc(OC)c1O,IC50,[14],> 80 µM (inactive)
same,IC50,[2],88.4 µM (active)
same,AC50,[13],27.4 µM (active)
Cc1nc2cc(Oc3nc(NCCN(C)C)nc4ccsc34)ccc2s1,AC50,[1],21 µM (active)
Cc1ccc(-n2cc(CN(C)Cc3nccn3C)c(-c3cccc(C)c3)n2)cc1,CC50,[15],> 40 µM (active)
same,AC50,[16],> 52 µM (inactive)
CC(=O)NC(c1ccc(C)cc1)c1cc(Cl)c2cccnc2c1O (configuration not stated),EC50,[17],1.38 µM (active)
same,EC50,cells [18],14.7 µM (active)
same,EC50,[19],0.911 µM (active)
same,EC50,[20],0.655 µM (active)
same,EC50,cells [21],> 350 µM (not active)
same,EC50,[22],0.763 µM (active)
same,EC50,Streptococcus,6.97 µM (active)
same,AC50,[23],3.52 µM (active)
same,AC50,[24],2.12 µM (active)
same,AC50,[25],4.67 µM (active)
same,AC50,[26],3.29 µM (active)
same,AC50,[10],37.4 µM (active)
same,AC50,[5],2.8 µM (active)
Cc1cccc(S(=O)(=O)N2CCCCN3[C@H](CO)[C@H](c4ccc(C#C[C@H](C)O)cc4)[C@H]3C2)c1,AC50,Paired box protein Pax-8,7.18 µM (active)
same,AC50,[6],30.4 µM (active)
same,AC50,[7],17.6 µM (active)
same,AC50,[9],> 70 µM (inactive)
O=C1[C@H](Cc2ccccc2)NCCCC[C@H](c2ccco2)N1Cc1ccccc1,AC50,[12],4.38 µM (active)
same,AC50,[13],39.9 µM (active)
same,AC50,[27],10.4 µM (active)
same,AC50,[28],7.61 µM (active)
same,AC50,[29],35.3 µM (active)
CC(C)N1CC2(CN(Cc3ccc(Cl)cc3)C2)Oc2c(NC(=O)c3ccncc3)cccc2C1=O,AC50,[3],0.136 µM (active)

# Source: ChEMBL document CHEMBL1201862, “PubChem BioAssay data set” (2004)
